Measured values reported in US20250120420A1, “FEED ADDITIVE FOR IMPROVING ANIMAL PERFORMANCE, DIGESTION AND INTESTINAL HEALTH AND RELATED METHODS” (priority 2023, published 2025).
Marks after values point to notes of the source that are not given here.

What was measured:
[1] = test system: laying hens; experiment: Laying hen trial, two-by-two factorial xylanase / COS, 60 days; format: in vivo, HiSex laying hens
Procedure: The researchers combined xylanase and COS in a two-by-two factorial design study in order to investigate the impact of combining xylanase and COS on animal intestinal health, and specifically the microbiome. Materials and Methods: The effects of dietary supplementation of a combination of xylanase/COS (prototype or “[…]”) were evaluated in a laying hen trial over a duration of 60 days. A total of 40 HiSex laying hens were used in this experiment, with four diets and 10 replicates per diet. Dosages were determined based on extrapolation of the in vitro cell culture data. Laying hens were allocated into four different groups: (T1) Control; […] (T3) xylanase alone, using […] Industries, Inc.); (T4) and a combination of xylanase and COS. The diets were based on wheat ( 55%), soybean and sunflower meal.

[2] = test system: broilers; experiment: Broiler trial, xylanase/COS dose response, 35 days, zootechnical performance; format: in vivo
Procedure: The researchers performed a study in growing poultry, in which xylanase and COS were combined in a dose response study in order to study the impact of combining xylanase and COS on poultry growth.
Materials and Methods: The effects of dietary supplementation of a combination of xylanase/COS were evaluated in a broiler trial over a duration of 35 days. A total of 1200 Ross broilers were used in this experiment, with five diets and 12 replicates per diet.

[3] = Grower phase, 15-35 days of age
[4] = Starter phase, 0-14 days of age

In the case of “beta 1-4, endo-xylanase enzyme [Xygest HT]”, the “Albumin Height” value ([1]; End of Phase 1) is reported as 7.1 a mm, the “Egg Shell Thickness” value ([1]; End of Phase 1) is reported as 0.397 a mm and the “Haugh Unit (HU)” value ([1]; End of Phase 1) is reported as 84.3 a. The “Shell Breaking Strength” value ([1]; End of Phase 1) was 4.6 a kg · force, the “Yolk Color Score (DSM method)” value ([1]; End of Phase 1) was 5.3 a and the “Yolk Diameter” value ([1]; End of Phase 1) was 43.2 mm. For the same substance, the “Yolk Height” value ([1]; End of Phase 1) was 18.7 mm, the “Yolk Index” value ([1]; End of Phase 1) was 0.44 and the “Albumin Height” value ([1]; End of Phase 2) was 7.9 a mm. The “Egg Shell Thickness” value ([1]; End of Phase 2) was 0.428 a mm, the “Haugh Unit (HU)” value ([1]; End of Phase 2) was 88.7 a and the “Shell Breaking Strength” value ([1]; End of Phase 2) was 4.7 ab kg · force. For the same substance, the “Yolk Color Score (DSM method)” value ([1]; End of Phase 2) was 6.7 a, the “Yolk Diameter” value ([1]; End of Phase 2) was 44.2 mm and the “Yolk Height” value ([1]; End of Phase 2) was 18.3 ab mm. For the same substance, the “Yolk Index” value ([1]; End of Phase 2) was 0.42 a, the “Egg mass, % Improvement compared to the control treatment” value ([1]; laying hens, 60 days) was 0.91% and the “Egg weight, % Improvement compared to the control treatment” value ([1]; laying hens, 60 days) was 0.58%. For the same substance, the “FCR, % Improvement compared to the control treatment” value ([1]; laying hens, 60 days) was −0.07%, the “laying percentage compared to the control group (in words)” value ([1]; laying hens, 60 days) was “significant increase” and the “nutrient digestibility (in words, FIG. 6-11)” value ([1]; laying hens, 60 days) was “Even a better effect”. For the same substance, the ADFI ([2]; Global trial, 0-35 days of age) was 87.2 g/day, the FCR ([2]; Global trial, 0-35 days of age) was 1.51^ab and the “M-ADFI (mortality adjusted mean daily feed intake)” value (“M-ADFI” below) ([2]; Global trial, 0-35 days of age) was 86.8 g/day. For the same substance, the “M-ADG (mortality adjusted mean daily gain)” value (from here on “M-ADG”) ([2]; Global trial, 0-35 days of age) was 57.5^a g/d, the “M-FCR (Mortality adjusted feed:gain)” value ([2]; Global trial, 0-35 days of age) was 1.51^ab and the ADFI [2, 3] was 123.7 g/day. The ADG [2, 3] was 80.0^a g/d, the FCR [2, 3] was 1.55^ab and the “M-ADFI” value [2, 3] was 123.3 g/day. The “M-ADG” value [2, 3] was 79.9^a g/d, the “M-FCR (Mortality adjusted feed:gain)” value [2, 3] was 1.54^ab and the ADFI [2, 4] was 32.9 g/day. For the same substance, the ADG [2, 4] was 24.5 g/day, the FCR [2, 4] was 1.35 and the “M-ADFI” value [2, 4] was 32.8 g/day. The “M-ADG” value [2, 4] was 24.4 g/day, the “M-FCR (Mortality adjusted feed:gain)” value [2, 4] was 1.34^ab and the Body weight ([2]; broilers, 14 days of age) was 386 g.
